Laboratory results reported in patent US10597696B2, “Detection of Niemann-Pick disease comprising detection of lysozyme and cathepsins” (UNIVERSITY OF NOTRE DAME DU LAC, priority 2013, dated 2020).

Tests used:
[1] = test system: Npc1^nih Npc1^−/− mouse brain; assay: Immunohistochemistry of brain sections after HPβCD; assay type: in vivo; settings: immunofluorescence
Protocol: Mice were sacrificed by asphyxiation using CO2. The circulatory bed was washed with PBS (pH 7.4), and subsequently perfused with 10% neutral buffered formalin (˜4% formaldehyde). The organs (brain and liver) were surgically harvested and stored in 4% formaldehyde at room temperature (RT) until transfer to paraffin. Paraffin-embedded tissue sections (3-4 μm) were dewaxed in xylene and alcohol. For Ly-6G and calbindin staining, antigen retrieval was done by pre-incubating deparaffinized samples with 0.05% proteinase K (Dako, Germany) in 50 mM Tris-HCl (pH 7.5) for 8 min at RT. CTSS and lysozyme were retrieved by boiling the sections in acidic condition for 30 min. Sections were incubated with anti-Ly-6G (20 μg/ml), anti-calbindin (1:1000), anti-CTSS (20 μg/ml) or anti-lysozyme (1:20) overnight at 4° C. Reagents were prepared according to the manufacturer's instructions (Vector laboratories). The staining protocol was followed as described previously (19). The secondary antibody for neutrophil staining was biotinylated rabbit anti-rat IgG (mouse absorbed, Vector Laboratories) and for Purkinje neurons was biotinylated horse anti-mouse IgG (Vector Laboratories).
For fluorescence microscopy, FITC-conjugated IgG (MP Biomedicals, Solon, Ohio, USA) was the secondary antibody. Sections stained only with secondary antibodies served as controls. Brightfield images were acquired on a Nikon Olympus microscope, using a Nikon digital DS-Fi1-U2 camera controlled by NIS-Elements F3.0 Nikon software (all from Nikon Instruments INC, Tokyo, Japan). Images were visualized with A10 PL 10×/0.25, or a DPIan Apo 40×/1.00 oil-immersion or a DPIan Apo 100×/1.30 oil-immersion objective lens (Nikon). Fluorescence microscopy and digital image collection were performed using an Olympus IX inverted fluorescence microscope and a Photometrix cooled CCD camera (CH350/LCCD) driven by DeltaVision software from Applied Precision (Seattle, Wash., USA). […] ImageJ (National Institute of Health, Bethesda, Md., USA) software was used to process and quantify the fluorescence intensity of CTSS and lysozyme. […]

Npc1^nih Npc1^−/− mice = assay: Plasma 24(S)-hydroxy cholesterol ELISA after HPβCD; assay type: in vivo, mouse
Protocol: Plasma 24-HC concentration was determined using ELISA kit from Enzo Life Sciences (Farmingdale, N.Y., USA) according to the manufacturer's instructions. Plasma was diluted to 1:1000 in supplied buffer and measurements were done in triplicate wells. Pure 24-HC (supplied with kit) was used to prepare the standard curve. 24-HC concentration was normalized to plasma protein content. Starting at P21 and once a week thereafter, Npc1^nih and Npc1^nmf164 mice were injected i.p with 20% 2-hydroxypropyl-beta-cyclodextrin (HPβCD, 4000 mg/Kg) prepared in 0.2% DMSO and 0.9% saline. Control mice received 0.2% DMSO in 0.9% saline. Blood was collected either via cheek bleed or terminal heart bleed from mice in EDTA tubes (BD Biosciences, San Jose, Calif., USA). Plasma was separated by centrifugation at 2500 rpm for 15 min and stored at −70° C. until used.

SMILES: CC(O)COC[C@H]1O[C@@H]2O[C@H]3[C@H](O)[C@@H](O)[C@@H](O[C@H]4[C@H](O)[C@@H](O)[C@@H](O[C@H]5[C@H](O)[C@@H](O)[C@@H](O[C@H]6[C@H](O)[C@@H](O)[C@@H](O[C@H]7[C@H](O)[C@@H](O)[C@@H](O[C@H]8[C@H](O)[C@@H](O)[C@@H](O[C@H]1[C@H](O)[C@H]2O)O[C@@H]8COCC(C)O)O[C@@H]7COCC(C)O)O[C@@H]6COCC(C)O)O[C@@H]5COCC(C)O)O[C@@H]4COCC(C)O)O[C@@H]3COCC(C)O (stereo partly drawn) [HPβCD, 2-hydroxypropyl-beta-cyclodextrin]
- lysozyme levels in the cerebellum (white mater region) ([1]; FIG. 19E-F): no significant effect
- reduction of lysozyme in molecular layer of the cerebellum ([1]; FIG. 19I-K): ~25%
- reduction of CTSS levels in hippocampal neurons ([1]; ImageJ quantification): ~20%
- 24(S)-HC level in plasma (Npc1^nih Npc1^−/− mice): largely unaffected
